# According to US20150216182A1, “COMPOSITIONS AND METHODS OF THE ATTRACTION AND REPULSION OF INSECTS” (Olfactor Laboratories, Inc., priority 2012, published 2015):
# Where a name gives a salt, the structure may show the parent alone. Read-outs that look alike come from different tables or passages of the source.
# What was measured:
# [1] = system: bed bugs (Cimex lectularius); assay: bed bug repellency assay; assay type: in vivo; conditions: for % Rep (bed bug repellency): compound or combination on filter paper harborage, ten bed bugs
# Procedure: Compounds and combinations of compounds of the present invention were assayed for their ability to repel bed bugs (Cimex lectularius) using a bed bug repellency assay. This assay takes advantage of the bed bug's natural tendency to seek harborage. Two petri dishes were obtained and the inner areas of each were sanded down (leaving the perimeter smooth.) Talc was applied on the perimeter and on the inside walls of the petri dishes with a small paint brush to prevent bed bugs from escaping. A cut off top portion of a solo bathroom cup was placed upside down in the center of one petri dish. A large plastic secondary container was gathered and a paper towel was laid down inside the bottom. The petri dish was then placed inside and ten bed bugs were placed inside the cut off portion of the solo cup. Next, two pieces of filter paper were cut down the middle to yield 4 equally sized halves. 3 pieces were placed inside a glass dish ([…]) and the remaining piece was placed in a separate dish. All 4 pieces were folded down the middle to create a “tent” or “harborage” when laid such that the folded crease faced up. 100 microliters of isopropyl alcohol was pipetted into 3 pieces of filter paper (all housed in the first glass dish.) In a separate 4 ml vial, 90 microliters of isopropyl alcohol was combined and vortexed with 10 microliters of the compound or compound combination being tested. 100 microliters of this solution [comprising a total of 100 mg of compound(s)] was pipetted onto the filter paper in the separate dish. All filter papers were then allowed to dry. Once dry, experiments were conducted first with two filter paper halves comprising only the isopropyl alcohol (control experiment) and then with the remaining filter paper halves [one with only isopropyl alcohol and one comprising the test compound(s).] Filter paper halves were placed on opposing sides of experimental petri dishes and bed bugs were allowed to move freely within the dishes for 5 minutes. Movement of bed bugs beneath each filter paper tent was recorded. […] In the Table, “Rep” refers to repellency and “Cmpd” refers to compound.
# [2] = system: female mosquitoes; assay: whole plant or invertebrate; conditions: 2 h; for mortality at 200 µg/mL: read-out: % mortality with 0.2 mg/ml; for mortality at 2000 µg/mL: read-out: % mortality with 2 mg/ml
# [3] = system: larvae; assay: larvicidal activity assay; assay type: in vivo; conditions: for pest or weed control at 0.25 %: read-out: % Lethality with 0.25% compound conc.; for pest or weed control at 100 ppm: read-out: % Lethality at 100 ppm
# Procedure: A 6-well plate (Corning Life Sciences, Tewksbury, Mass.) is used to test a compound's larvicidal activity. […] After a 24 hour exposure, the number of dead larvae are counted and recorded.
# The results are presented in Table 17 as % lethality (the number of dead larvae divided by the total number of larvae).
# [4] = system: cpA neurons; assay: extracellular single-sensillum electrophysiology: activation of cpA neuronal activity; conditions: for Class: Table 6, single compounds, increase over baseline cpA neuronal activity; for Comp A Class / Comp B Class: Table 9; for Comp A Class: component A tested individually; for Comp B Class: component B tested individually; for Class (activator class of the individual component): Actv = activator; for Class B (activator class of the individual component): Table 15, single component alone, Mod Actv
# [5] = 0.25% compound, 24 hour exposure, dead larvae / total larvae
# [6] = 100 ppm compound, 24 hour exposure, dead larvae / total larvae
Compound,% Rep (bed bug repellency) [1] [%],mortality at 200 µg/mL [2] [%],mortality at 2000 µg/mL [2] [%],"pest or weed control at 0.25 % [3, 5] [%]","pest or weed control at 100 ppm [3, 6] [%]",Class [4],"ability to repel bed bugs ([1]; 100 microliters solution on filter paper tent, 5 minutes)",Comp A Class [4],Comp B Class [4],"Class (activator class of the individual component) ([4]; Table 13, single component alone)",Class B (activator class of the individual component) [4],"Class (activator class of the individual component) ([4]; Table 16, single component alone)",activator class of single compound ([4]; single compound),pest or weed control at 100 ppm ([3]; 24 h) [%],pest or weed control at 0.25 % ([3]; 24 h) [%]
"CCCCC=O [OLI0066, valeraldehyde]",33,0,0,35,0,Mild Activator (mild activators yield an increase in neuronal activity that is between 20 and 40 spk/sec over baseline neuronal activity),–,–,–,–,–,–,–,–,–
"CCC(=O)OCC=Cc1ccccc1 [OLI0109, cinnamyl propionate]",41,0,100,100,0,–,–,–,–,–,–,–,–,–,–
CC(C)=CCC/C(C)=C/CO [geraniol],–,–,–,–,–,–,surprisingly strong ability to repel bed bugs,–,–,–,–,–,–,–,–
"Cc1nccnc1C [OLI0015, 2,3-dimethylpyrazine]",77,0,0,0,0,Moderate Activator (Moderate activators yield an increase in neuronal activity that is between 40 and 60 spk/sec over baseline neuronal activity),–,Mod,Mod,Mod,Mod,Mod,moderate activator (spike rate of 40-60 spk/sec over the baseline activity of the neuron),–,–
"COC(=O)C=Cc1ccccc1 [OLI0113, methyl cinnamate]",68,0,100,100,0,–,–,–,–,–,–,–,–,–,–
"CC(=O)c1ccco1 [OLI0017, 2-furyl methyl ketone]",60,0,0,100,50,Moderate Activator (Moderate activators yield an increase in neuronal activity that is between 40 and 60 spk/sec over baseline neuronal activity),–,Mod,–,–,Mod,–,–,–,–
"CC1CCC(C(C)C)C(O)C1 (centres unmarked) [OLI0115, Menthol]",60,0,0,–,–,–,–,–,–,–,–,–,–,0,100
"CCOC(=O)C=Cc1ccccc1 [OLI0110, ethyl cinnamate]",59,0,100,100,0,–,–,–,–,–,–,–,–,–,–
"CC1OCCC1=O (centres unmarked) [OLI0004, 2-methyltetrahydrofuran-3-one]",37,0,0,0,0,Strong Activator (strong activators yield an increase in activity that is >60 spk/sec over baseline neuronal activity),–,–,–,–,–,–,–,–,–
"COC(=O)/C=C/c1ccccc1 [OLI0114, methyl trans-cinnamate]",70,0,100,100,0,–,–,–,–,–,–,–,–,–,–
"CCOC(=O)C(C)O (centres unmarked) [OLI0010, ethyllactate]",37,0,0,0,0,Strong Activator (strong activators yield an increase in activity that is >60 spk/sec over baseline neuronal activity),–,–,–,–,–,–,–,–,–
O=CCc1ccccc1 [OLI0121],100,–,–,–,–,–,–,–,–,–,–,–,–,–,–
"c1ccc2[nH]ccc2c1 [OLI0052, indole]",100,0,100,–,–,Mild Activator (mild activators yield an increase in neuronal activity that is between 20 and 40 spk/sec over baseline neuronal activity),–,–,–,–,–,–,–,100,100
"O=C/C=C/c1ccccc1 [OLI0065, trans-cinnamaldehyde]",100,0,0,–,–,Mild Activator (mild activators yield an increase in neuronal activity that is between 20 and 40 spk/sec over baseline neuronal activity),–,–,–,–,–,–,–,0,100
"O=COCC=Cc1ccccc1 [OLI0107, cinnamyl formate]",100,0,100,100,0,–,–,–,–,–,–,–,–,–,–
"COc1ccccc1O [OLI0012, guaiacol]",100,0,0,100,0,Strong Activator (strong activators yield an increase in activity that is >60 spk/sec over baseline neuronal activity),–,–,–,–,–,–,–,–,–
"O=CCc1ccccc1 [OLI0028, phenylacetaldehyde]",50,0,0,–,–,Moderate Activator (Moderate activators yield an increase in neuronal activity that is between 40 and 60 spk/sec over baseline neuronal activity),–,–,Mod,–,–,–,–,–,–
"O=C(C=Cc1ccccc1)OCc1ccccc1 [OLI0120, benzyl cinnamate]",21,0,0,0,0,–,–,–,–,–,–,–,–,–,–
"CCC(=O)OC/C=C/c1ccccc1 [OLI0105, trans-cinnamyl propionate]",35,0,85,100,0,–,–,–,–,–,–,–,–,–,–
"C=CCOC(=O)C=Cc1ccccc1 [OLI0104, allyl cinnamate]",54,0,45,100,15,–,–,–,–,–,–,–,–,–,–
"CCCCCCOC(=O)CCC [OLI0119, hexyl butyrate]",59,0,0,15,0,–,–,–,–,–,–,–,–,–,–
